Patent US20200061076A1, “METHODS OF TREATING LEUKODYSTROPHIES” (Ramot at Tel-Aviv University Ltd., priority 2017, published 2020)

Assays:
Mut MEFs = experiment: Survival under Tunicamycin-induced ER stress, Crystal Violet, MEFs; conditions: 20 μM, 24 hours, Tunicamycin during the last 22 hours (FIGS. 9, 10 and 18)
Procedure: Mut MEFs were treated or not for 24 hours with the indicated concentrations of the indicated Sig-1R binders in the presence of 0.1 μg/ml Tunicamycin (Tun) during the last 22 hours. Following, the cells were washed, fixated and stained with Crystal Violet (CV) followed by measurement of absorbance at 570 nm. Shown is average % of CV staining relative to cells not treated with tunicamycin nor Sig-1R binder ±SEM of 3 independent experiments. *p<0.03.
Following, the cells were washed, fixated and stained with Crystal Violet and absorbance at 570 nm was measured. Data is presented relative to cells of the corresponding genotype not treated with p8G5 nor Tunicamycin. Shown is average % of CV staining ±SEM of 3 independent experiments.
Mut MEFs were treated or not for 24 hours with 10, 20 or 30 μM of the indicated Sig-1R binders in the presence of 50 ng/ml Tunicamycin (Tun) during the last 22 hours. Following, the cells were washed, fixated and stained with Crystal Violet (CV) followed by measurement of absorbance at 570 nm. Shown is % of CV staining relative to cells not treated with tunicamycin nor Sig-1R binder ±SEM of 3 independent experiments, *p<0.05.
Mut MEFs were incubated or not with the indicated concentrations of the indicated compounds for 2 hours followed by addition of 50 ng/ml Tunicamycin (Tun) for additional 22 hours, stained with Crystal Violet followed by measurement of absorbance at 570 nm. Shown is average normalized to Tun-treated cells without any compound ±SEM of 3 independent experiments. * not significant; ** p<0.02; *** all values p<0.04.

Mut astrocytes = experiment: Cell survival assay, Crystal violet staining, Mut astrocytes; type: cell-based, mouse; conditions: 24 hours, untreated cells set to 100%
Procedure: Cells were seeded on 96-wells plate at a density of 5000 cells per well. Astrocytes were seeded following coating with 0.001% PDL.

Mut primary astrocytes = experiment: mtDNA quantification, primary astrocytes; type: cell-based, mouse; conditions: 1 or 10 μm, 6 hours (FIG. 17A)
Procedure: Shown is average relative quantity (RQ) of 2-6 independent experiments normalized to their untreated controls ±SEM. […] Values of ATP-linked respiration (FIG. 17B) and maximal respiration (FIG. 17C) were analyzed and normalized to cell number.

In the case of `Cc1cccc(OCCCCCN2CCOCC2)c1` [H8 (p8G5), 4-[5-(3-methylphenoxy)pentyl]morpholine], the “survival of Mut MEFs under Tunicamycin ER-stress” value (Mut MEFs) is reported as “attenuated the apoptotic effect”, the “Survival (%) ± SEM Mut astrocytes” value (Mut astrocytes; 1 μM) is reported as 108 ± 0.6% and the “Survival (%) ± SEM Mut astrocytes” value (Mut astrocytes; 10 μM) is reported as 93 ± 2.1%. For the same compound, the “Survival (%) ± SEM Mut astrocytes” value (Mut astrocytes; 30 μM) was 92 ± 1.6% and the “mitochondrial content per cell in astrocytes” value (Mut primary astrocytes) was “no effect on mitochondrial content per cell”.
